Assay results from patent US7048919B2, “Osteoclast secreted chemokine and uses thereof” (The UAB Research Foundation, priority 2000, dated 2006).
“Also recorded” adds a separate entry of the source.

Experiments:
[1] = test system: avian osteoclasts; experiment: Osteoclastic bone resorption assay (3H proline release from labeled bone); format: cell-based, avian (white Leghorn hens); details: for effect on PMA stimulated increase in bone resorption: PMA stimulated osteoclasts
Experimental: Bone resorption assays using 150 μg labeled bone were cultured for four days in the presence of increasing concentrations of PMA. Resorption activity was quantified by measuring ^3H proline released to the media. Data represent the mean +/− SEM of n=5 experiments each performed in quadruplicate.
Avian osteoclasts (from egg-laying white Leghorn hens) were utilized because gram quantities of pure osteoclasts are readily obtained. Avian osteoclasts (>10^7 cells) were isolated as previously described (16). Laying hens on a limited calcium diet produce massive numbers of osteoclasts to meet the calcium requirement for eggshell production. The endosteum of such birds, is >50% osteoclasts by mass. Medullary bone is scraped from the endosteum into calcium- and magnesium-free phosphate-buffered saline (PBS) at 4° C. Cells are separated from matrix by washing through 100 μm nylon filters and sedimented through 70% newborn calf serum. Osteoclasts purified by density gradient sedimentation, result in preparations in which osteoclasts represent ˜75–90% of viable cells. Following sedimentation, macrophages represent <2% of the cell mass. For experiments requiring homogeneous osteoclasts the cells purified by serum sedimentation are then affinity purified b y attachment to bone fragments and then resedimented 24 hrs later, eliminating essentially all but viable, bone-attached osteoclasts (17).
L-[^3H]-proline-labeled devitalized bone is used as Substrate in the avian osteoclast resorption assay. This substrate has the advantages of reflecting removal of both the mineral and organic phases of bone, and is resistant to artifacts due to physicochemical exchange (e.g. media acidification (16)). Weanling rats (40–60 g) are injected with 1 mCi of L-[2,3,4,5−^3H]-proline, >100 Ci/mmol, on alternate days for 10 days. Rats are sacrificed on day 12 and bone recovered by dissection. After washing, the bone is dried in a desiccator at 42° C. for 7 days. Labeled 20–40 μm bone fragments are obtained by grinding the bone in a ball bearing mill and sieving to size.
Osteoclasts are plated at 2–3×10^3 cells/well on 24 well plates with 100 μg of labeled 20–40 μm ^3H labeled bone fragments. To avoid possible contamination (due to fusing macrophages or growth of fibroblast/osteoblast cells) bone resorption is measured after 4 days. Osteoclasts rapidly (˜4 hrs) attach to and begin to degrade the bone fragments, releasing label into the media. Bone degradation is determined by measuring label released to the media. […] The ^3H proline assay is also resistant to pH-dependent artifacts and has less inter-assay variability than pi t assays (17–19). Activity, with 100 μg bone fragments, is linear over 5–7 days (16).

[2] = test system: avian osteoclasts; experiment: mim-1 secretion by osteoclasts, Western analysis of lysates and media; format: cell-based; details: for effect on secretion of mim-1: PMA stimulated osteoclasts
Experimental: Avian osteoclasts were cultured as described in FIGS. 1 and 2; cells were washed with ice cold PBS and lysed. Culture media was collected from each treatment and boiled in sample buffer. Protein (25 μg) from cell lysates (Lysates) and equal aliquots of the corresponding media (Media) were resolved on 10% SDS-PAGE, transferred to PVDF membrane and Western blotted for mim-1. Molecular weights (kilodaltons) are indicated on the left. Representative of n=2 separate experiments.
Avian osteoclasts were cultured with bone (1 mg/well) for the indicated times in the presence of 0.3 μM PMA. Osteoclasts were washed with ice-cold phosphate buffered saline, lysed and 25 μg cell lysates resolved on 10% SDS-PAGE, transferred to PVDF membrane and probed with for mim-1 as described in the legend to FIG. 4. Data is representative of two separate experiments.
Avian osteoclasts are washed with phosphate buffered saline (PBS) and lysed as previously described (20). The lysis buffer (Buffer A) is 50 mM Tris, pH 7.0, 250 mM sucrose, 1 mM EGTA, 1 mM EDTA, 1 mM ammonium molybdate, 50 mM NaF, 1 mM orthovanadate, 0.5 μM okadaic acid, 5 mM benzamidine, 0.1 mM PMSF, 0.05 mg/ml pepstatin, 0.06 mg/ml leupeptin, 0.018 trypsin inhibitor units of aprotinin/ml, 10% glycerol and 1% Triton X100. Cells were solubilized 1 hr with rotation and the Triton insoluble material removed by centrifugation at 15,000×g for 5 min at 4° C. Lysates (25 μg protein) were resolved on 10% SDS-PAGE. Protein was transferred under standard conditions (21) to PVDF membranes. Mim-1 was detected on Western analysis using a polyclonal antibody generated against a trpE-mim-1 fusion protein (15) (generously provided by Scott Ness, University of New Mexico) by enhanced chemiluminescence. Protein concentrations were determined by the Bio Rad DC assay (Bio Rad, Richmond, Calif.).
To determine the effects of PMA on osteoclast secretion of mim-1 and its relation to bone resorption, osteoclasts were cultured as described above in the presence of the indicated concentrations of PMA and aliquots of media removed at the indicated times (FIG. 4) and the level of mim-1 determined b y Western analysis. As bone resorption was stimulated (see FIG. 1), mim-1 dercreased in the cell lysate (FIG. 4, left, Lysates) and increased in the culture, media (FIG. 4, right, Media).

[3] = test system: calmodulin; experiment: Calmodulin protein levels in osteoclasts; format: cell-based, avian; details: for calmodulin protein levels: PMA treated osteoclasts

SMILES | EC50 ([1]; Osteoclast, 96 h, read-out: K0.5 of stimulation of bone resorption) [nM] | stimulation of bone resorption by isolated osteoclasts ([1]; isolated avian osteoclasts, 4 days, 3H proline released to media) [fold] | mim-1 in osteoclast cell lysates ([2]; 0.3 μM PMA, 24 hours) | secretion of mim-1 by osteoclasts ([2]; increasing concentrations of PMA) | calmodulin protein levels [3] | calmodulin protein levels ([3]; listed as Phorbol myristate acetate) | effect on PMA stimulated increase in bone resorption [1] | effect on secretion of mim-1 [2] | effect on PMA dependent increase in calmodulin levels ([3]; PMA stimulated osteoclasts)
CCCCCCCCCCCCCC(=O)O[C@@H]1[C@@H](C)[C@@]2(O)[C@@H](C=C(CO)C[C@]3(O)C(=O)C(C)=C[C@@H]23)[C@@H]2C(C)(C)[C@]12OC(C)=O [PMA, phorbol myristate acetate] | 100 to 300 | 4 | substantially reduced | rapidly increased; also recorded: stimulated in a PMA concentration dependent manner | increase in calmodulin protein levels | dose dependent increase |  |  | 
CC/C(=C(\c1ccccc1)c1ccc(OCCN(C)C)cc1)c1ccccc1 [tamoxifen] |  |  |  |  |  |  | inhibited | did not inhibit | inhibit
CN1CCN(CCCN2c3ccccc3Sc3ccc(C(F)(F)F)cc32)CC1 [trifluoperazine] |  |  |  |  |  |  | inhibited | did not inhibit | 
